Results published in US20050038048A1, “Use of 7h-pyrrollo{2,3-d}pyrimidine derivatives in the treatment of solid tumor diseases” (priority 2001, published 2005).

Key:
renal cell cancer = assay: Treatment of a human patient suffering from renal cell cancer with PKI166; assay type: in vivo; details: stable disease = less than 50% decrease or less than 25% increase in measurable or evaluable disease
Method: A human patient suffering from renal cell cancer is treated for a period of 16 weeks in 4 cycles consisting of administration of 600 mg of PKI166 daily for two weeks followed by 2 weeks without administering the drug. […] A human patient suffering from renal cell cancer is treated for a period of 16 weeks with 400 mg of PKI166 on Monday, Wednesday and Friday of each week.

NSCLC = assay: Treatment of a human patient suffering from NSCLC with PKI166; assay type: in vivo; details: 8 weeks, 450 mg/day except on day 2, 16 and 30, partial response = greater than or equal to 50% reduction in measurable or evaluable disease without progression
Method: A human patient suffering from NSCLC is treated for a period of 8 weeks with 450 mg/day of PKI166 except on day 2, 16 and 30 on which days no drug is applied.

| SMILES | melting point [°C] | further results |
| --- | --- | --- |
| C[C@@H](Nc1ncnc2[nH]c(-c3ccc(CN4CCN(C)CC4)cc3)cc12)c1ccccc1 [Example 1, {6-[4-(4-Methyl-piperazin-1-ylmethyl)-phenyl]-7H-pyrrolo[2,3-d]pyrimidin-4-yl}-((R)-1-phenyl-ethyl)-amine] | 248 to 250 | – |
| CCN(CC)Cc1ccc(-c2cc3c(N[C@H](C)c4ccccc4)ncnc3[nH]2)cc1 [Example 2, [6-(4-Diethylaminomethyl-phenyl)-7H-pyrrolo[2,3-d]pyrimidin-4-yl]-((R)-1-phenyl-ethyl)-amine] | 246 to 248 | – |
| C[C@@H](Nc1ncnc2[nH]c(-c3ccc(CN4CCCC4)cc3)cc12)c1ccccc1 [Example 4, ((R)-1-Phenyl-ethyl)-[6-(4-pyrrolidin-1-ylmethyl-phenyl)-7H-pyrrolo[2,3-d]pyrimidin-4-yl]-amine] | 254 to 256 | – |
| C[C@@H](Nc1ncnc2[nH]c(-c3ccc(CN(C)C)cc3)cc12)c1ccccc1 [Example 5, [6-(4-Dimethylaminomethyl-phenyl)-7H-pyrrolo[2,3-d]pyrimidin-4-yl]-((R)-1-phenyl-ethyl)-amine] | 241 to 243 | – |
| C[C@@H](Nc1ncnc2[nH]c(-c3ccc(CN4CCCCC4)cc3)cc12)c1ccccc1 [Example 6, ((R)-1-Phenyl-ethyl)-[6-(4-piperidin-1-ylmethyl-phenyl)-7H-pyrrolo[2,3-d]pyrimidin-4-yl]-amine] | 246 to 248 | – |
| C[C@@H](Nc1ncnc2[nH]c(-c3ccc(CN4CCOCC4)cc3)cc12)c1ccccc1 [Example 7, [6-(4-Morpholin-4-ylmethyl-phenyl)-7H-pyrrolo[2,3-d]pyrimidin-4-yl]-((R)-1-phenyl-ethyl)-amine] | 263 to 265 | – |
| CC1CN(Cc2ccc(-c3cc4c(N[C@H](C)c5ccccc5)ncnc4[nH]3)cc2)CC(C)N1 (stereo partly drawn) [Example 8, {6-[4-(3,5-Dimethyl-piperazin-1-ylmethyl)-phenyl]-7H-pyrrolo[2,3-d]pyrimidin-4-yl}-((R)-1-phenyl-ethyl)-amine] | 208 to 210 | – |
| C[C@@H](Nc1ncnc2[nH]c(-c3ccc(CNCCN4CCOCC4)cc3)cc12)c1ccccc1 [Example 9, (6-{4-[(2-Morpholin-4-yl-ethylamino)-methyl]-phenyl}-7H-pyrrolo[2,3-d]pyrimidin-4-yl)-((R)-1-phenyl-ethyl)-amine] | 222 to 224 | – |
| C[C@@H](Nc1ncnc2[nH]c(-c3ccc(CNC4CCOCC4)cc3)cc12)c1ccccc1 [Example 10, ((R)-1-Phenyl-ethyl)-(6-{4-[(tetrahydro-pyran-4-ylamino)-methyl]-phenyl}-7H-pyrrolo[2,3-d]pyrimidin-4-yl)-amine] | 253 to 255 | – |
| C[C@@H](Nc1ncnc2[nH]c(-c3ccc(O)cc3)cc12)c1ccccc1 [PKI166, (R)-6-(4-hydroxy-phenyl)-4-[(1-phenyl-ethyl)-amino]-7H-pyrrolo[2,3-d]pyrimidine] | – | disease response observed during treatment (renal cell cancer; 16 weeks in 4 cycles of 600 mg daily for two weeks followed by 2 weeks without drug): stable disease; disease response observed during treatment (renal cell cancer; 16 weeks, 400 mg on Monday, Wednesday and Friday of each week): stable disease; disease response observed after treatment (NSCLC): partial response |
